Results reported in patent US10722514B2 (FLX Bio, Inc., priority 2017, dated 2020).
Structures can show the parent of a compound that is named as a salt.

target: T1, recombinant full-length USP7 (Homo sapiens, UniProt Q93009); experiment: USP7-mediated ubiquitin-rhodamine cleavage assay; type: biochemical; details: recombinant full-length USP7 62 pM; ubiquitin-rhodamine 100 nM; 30-minute incubation with compound, 1 hour reaction at room temperature; read-out: Potency: USP7 IC50
T1 construct: A 25 μl reaction volume containing recombinant full-length USP7 (62 pM)
In short: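 Rhodamine fluorescence read-out after acetic acid stop; IC50 by 4-parameter nonlinear regression. Enzyme at 62 pM, substrate ubiquitin-rhodamine 100 nM final, 1 h at room temperature in the dark, after 30 min compound preincubation. Buffer: HEPES pH 7.3, NaCl, TCEP, BSA; 1% DMSO.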

T1 sequence (Q93009 whole entry): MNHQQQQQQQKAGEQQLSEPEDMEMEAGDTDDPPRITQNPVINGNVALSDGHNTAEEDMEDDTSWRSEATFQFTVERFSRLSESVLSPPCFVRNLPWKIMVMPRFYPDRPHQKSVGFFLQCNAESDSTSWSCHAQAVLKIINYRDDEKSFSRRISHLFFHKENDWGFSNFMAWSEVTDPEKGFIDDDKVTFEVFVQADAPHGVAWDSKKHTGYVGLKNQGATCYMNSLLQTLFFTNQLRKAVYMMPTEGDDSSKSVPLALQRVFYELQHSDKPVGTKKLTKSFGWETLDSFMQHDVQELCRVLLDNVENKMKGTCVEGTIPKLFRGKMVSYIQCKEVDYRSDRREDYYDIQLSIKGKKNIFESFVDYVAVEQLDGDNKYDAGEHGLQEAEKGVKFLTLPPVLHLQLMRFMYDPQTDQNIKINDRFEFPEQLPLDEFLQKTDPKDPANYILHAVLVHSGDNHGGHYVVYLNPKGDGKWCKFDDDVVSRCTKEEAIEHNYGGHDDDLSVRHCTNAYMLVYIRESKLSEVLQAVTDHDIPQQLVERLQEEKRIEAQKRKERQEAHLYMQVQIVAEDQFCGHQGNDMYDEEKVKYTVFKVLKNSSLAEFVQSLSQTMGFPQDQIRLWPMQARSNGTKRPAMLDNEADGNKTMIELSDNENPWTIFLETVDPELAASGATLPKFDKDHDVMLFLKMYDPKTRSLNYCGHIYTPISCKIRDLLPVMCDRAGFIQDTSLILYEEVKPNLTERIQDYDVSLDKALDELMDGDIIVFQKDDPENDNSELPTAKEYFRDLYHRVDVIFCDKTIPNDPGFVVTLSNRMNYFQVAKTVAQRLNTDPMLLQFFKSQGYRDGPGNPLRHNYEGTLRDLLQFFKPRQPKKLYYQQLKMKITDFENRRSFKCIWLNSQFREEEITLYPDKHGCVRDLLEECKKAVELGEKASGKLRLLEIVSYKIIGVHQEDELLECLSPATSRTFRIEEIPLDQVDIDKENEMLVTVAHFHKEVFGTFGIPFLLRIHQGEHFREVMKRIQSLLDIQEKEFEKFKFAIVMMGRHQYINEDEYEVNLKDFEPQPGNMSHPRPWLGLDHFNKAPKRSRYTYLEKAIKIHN

Structure (SMILES)	IC50 [µM]
CC(=O)N[C@H]1CNC[C@H]1Oc1c(C)cc(Cl)cc1-c1ccnc2cc(CO)sc12 [Example 84, N-((3S,4R)-4-(4-Chloro-2-(2-(hydroxymethyl)thieno[3,2-b]pyridin-7-yl)-6-methylphenoxy)pyrrolidin-3-yl)acetamide]	10 to 30
Cc1cc(Cl)cc(-c2ccnc3cc(Cn4c(=O)ccn(C(C)(C)C)c4=O)sc23)c1O[C@H]1CCCNC1 [Example 282]	< 1
CO[C@H]1CNC[C@H]1Oc1c(C)cc(Cl)cc1-c1ccnc2cc(CN3C(=O)C4C(C3=O)C4(C)C)sc12 (stereo partly drawn) [Example 388, 3-[[7-[5-chloro-2-[(3R,4S)-4-methoxypyrrolidin-3-yl]oxy-3-methyl-phenyl]thieno[3,2-b]pyridin-2-yl]methyl]-6,6-dimethyl-3-azabicyclo[3.1.0]hexane-2,4-dione dihydrochloride]	< 1
Cc1cc(Cl)cc(-c2ccnc3cc(CN4C(=O)CC5(CCCC5)CC4=O)sc23)c1OC1CCNCC1 [Example 236, 8-((7-(5-Chloro-3-methyl-2-(piperidin-4-yloxy)phenyl)thieno[3,2-b]pyridin-2-yl)methyl)-8-azaspiro[4.5]decane-7,9-dione]	< 1
Cc1cc(Cl)cc(-c2ccnc3cc(CCOC4=NS(=O)(=O)c5ccccc54)sc23)c1O[C@@H]1CNC[C@@H]1F [Example 140, 3-(2-(7-(5-Chloro-2-(((3R,4S)-4-fluoropyrrolidin-3-yl)oxy)-3-methylphenyl)thieno[3,2-b]pyridin-2-yl)ethoxy)benzo[d]isothiazole 1,1-dioxide]	10 to 30
Cc1cc(Cl)cc(-c2ccnc3cc(CN4C(=O)CCC4=O)sc23)c1O[C@@H]1CNC[C@@H]1CF [Example 108, 1-((7-(5-Chloro-2-(((3S,4S)-4-(fluoromethyl)pyrrolidin-3-yl)oxy)-3-methylphenyl)thieno[3,2-b]pyridin-2-yl)methyl)pyrrolidine-2,5-dione]	< 1
Cc1cc(Cl)cc(-c2ncnc3ccsc23)c1O[C@H]1CCCNC1 [Example 262, (S)-4-(5-Chloro-3-methyl-2-(piperidin-3-yloxy)phenyl)thieno[3,2-d]pyrimidine]	10 to 30
Cc1cc(Cl)cc(-c2ccnc3cc(CO)sc23)c1O[C@@H]1CN[C@@H](CO)C1 [Example 76, (7-(5-Chloro-2-(((3S,5R)-5-(hydroxymethyl)pyrrolidin-3-yl)oxy)-3-methylphenyl)thieno[3,2-b]pyridin-2-yl)methanol]	10 to 30
Cc1cc(Cl)cc(-c2ccnc3cc(CN4C(=O)CCC4=O)sc23)c1O[C@@H]1CN[C@@H](CF)C1 [Example 101, 1-((7-(5-Chloro-2-(((3S,5R)-5-(fluoromethyl)pyrrolidin-3-yl)oxy)-3-methylphenyl)thieno[3,2-b]pyridin-2-yl)methyl)pyrrolidine-2,5-dione]	< 1
Cc1cc(Cl)cc(-c2ccnc3cc(CN4C(=O)CCC4=O)sc23)c1O[C@@H]1CN[C@@H](C)C1 [Example 99, 1-((7-(5-Chloro-3-methyl-2-(((3S,5S)-5-methylpyrrolidin-3-yl)oxy)phenyl)thieno[3,2-b]pyridin-2-yl)methyl)pyrrolidine-2,5-dione]	< 1
Cc1cc(Cl)cc(-c2ccnc3c(F)c(CN4C(=O)CCC4=O)sc23)c1O[C@H]1CCCNC1 [Example 163, (S)-1-((7-(5-Chloro-3-methyl-2-(piperidin-3-yloxy)phenyl)-3-fluorothieno[3,2-b]pyridin-2-yl)methyl)pyrrolidine-2,5-dione]	< 1
Cc1cc(Cl)cc(-c2ccnc3cc(Cn4c(=O)ccn(CC(F)(F)F)c4=O)sc23)c1OC1CCNC1(C)C (stereo not shown) [Example 344, 3-[[7-[5-chloro-2-(2,2-dimethylpyrrolidin-3-yl)oxy-3-methyl-phenyl]thieno[3,2-b]pyridin-2-yl]methyl]-1-(2,2,2-trifluoroethyl)pyrimidine-2,4-dione]	< 1
CCC(O)c1cc2nccc(-c3cc(Cl)cc(C)c3OCC3(C)CNC3)c2s1 (stereo not shown) [Example 33, 1-(7-(5-Chloro-3-methyl-2-((3-methylazetidin-3-yl)methoxy)phenyl)thieno[3,2-b]pyridin-2-yl)propan-1-ol]	1 to 10
Cc1cc(Cl)cc(-c2ccnc3cc(CN4C(=O)CCC4=O)sc23)c1O[C@@H]1CNC[C@H]1F [Example 104, 1-((7-(5-Chloro-2-(((3R,4R)-4-fluoropyrrolidin-3-yl)oxy)-3-methylphenyl)thieno[3,2-b]pyridin-2-yl)methyl)pyrrolidine-2,5-dione]	< 1
Cc1cc(Cl)cc(-c2ccnc3ccsc23)c1OCC1(C)CNC1 [Example 45, 7-(5-Chloro-3-methyl-2-((3-methylazetidin-3-yl)methoxy)phenyl)thieno[3,2-b]pyridine]	< 1
Cc1cc(Cl)cc(-c2ccnc3ccsc23)c1OC1CCNCC1 [Example 180, 7-(5-Chloro-3-methyl-2-(piperidin-4-yloxy)phenyl)thieno[3,2-b]pyridine]	10 to 30
Cc1cc(Cl)cc(-c2ccnc3cc(CCN4C(=O)CCS4(=O)=O)sc23)c1OC1CCNCC1 [Example 219, 2-(2-(7-(5-chloro-3-methyl-2-(piperidin-4-yloxy)phenyl)thieno[3,2-b]pyridin-2-yl)ethyl)isothiazolidin-3-one 1,1-dioxide]	10 to 30

same assay, conditions: recombinant full-length USP7 62 pM; ubiquitin-rhodamine 100 nM; 30-minute incubation, 1 hour reaction at room temperature; read-out: Potency (USP7 IC50)

Structure (SMILES)	IC50 [µM]
Cc1cc(Cl)cc(-c2ccnc3cc(Cn4c(=O)ccn(CC(F)(F)F)c4=O)sc23)c1OC1CC(N2CC(O)C2)C1 (stereo not shown) [Example 700, 3-[[7-[5-chloro-2-[3-(3-hydroxyazetidin-1-yl)cyclobutoxy]-3-methyl-phenyl]thieno[3,2-b]pyridin-2-yl]methyl]-1-(2,2,2-trifluoroethyl)pyrimidine-2,4-dione; 2,2,2-trifluoroacetic acid]	< 1

same assay, conditions: recombinant full-length USP7 62 pM; ubiquitin-rhodamine 100 nM; 30-minute pre-incubation, 1 hour reaction at room temperature; read-out: Potency (USP7 IC50)

Structure (SMILES)	IC50 [µM]
O=C1CCC(=O)N1Cc1cc2nccc(-c3cc(Cl)cc(C(F)F)c3O[C@H]3CCCNC3)c2s1 [Example 432, 1-[[7-[5-chloro-3-(difluoromethyl)-2-[[(3S)-3-piperidyl]oxy]phenyl]thieno[3,2-b]pyridin-2-yl]methyl]pyrrolidine-2,5-dione dihydrochloride]	< 1
Cc1cc(Cl)cc(-c2ccnc3cc(Cn4c(=O)ccn(CC(F)(F)F)c4=O)sc23)c1OC1CC(C)(N2CCOCC2)C1 (stereo not shown) [Example 613, 3-[[7-[5-chloro-3-methyl-2-(3-methyl-3-morpholino-cyclobutoxy)phenyl]thieno[3,2-b]pyridin-2-yl]methyl]-1-(2,2,2-trifluoroethyl)pyrimidine-2,4-dione; 2,2,2-trifluoroacetic acid]	< 1
Cc1cc(Cl)cc(-c2ccnc3cc(Cn4c(=O)ccn(C)c4=O)sc23)c1OC1CNCCC1(F)F (stereo not shown) [Example 514, 3-[[7-[5-chloro-2-[(4,4-difluoro-3-piperidyl)oxy]-3-methyl-phenyl]thieno[3,2-b]pyridin-2-yl]methyl]-1-methyl-pyrimidine-2,4-dione; 2,2,2-trifluoroacetic acid]	< 1
Cc1cc(Cl)cc(-c2ccnc3cc(Cn4c(=O)ccn(CC(F)(F)F)c4=O)sc23)c1OC1CN2CCC1C2 [Example 589, 3-[[7-[2-[[(1S,3S,4R)-1-azabicyclo[2.2.1]heptan-3-yl]oxy]-5-chloro-3-methyl-phenyl]thieno[3,2-b]pyridin-2-yl]methyl]-1-(2,2,2-trifluoroethyl)pyrimidine-2,4-dione]	< 1
COCCN1CC[C@@H](Oc2c(C)cc(Cl)cc2-c2ccnc3cc(Cn4c(=O)ccn(CC(F)(F)F)c4=O)sc23)[C@H](C)C1 [Example 654, 3-[[7-[5-chloro-2-[[(3R,4R)-1-(2-methoxyethyl)-3-methyl-4-piperidyl]oxy]-3-methyl-phenyl]thieno[3,2-b]pyridin-2-yl]methyl]-1-(2,2,2-trifluoroethyl)pyrimidine-2,4-dione]	< 1
Cc1cc(Cl)cc(-c2ncnc3cc(Cn4c(=O)c(F)cn(C(C)C)c4=O)sc23)c1O[C@H]1CCCNC1 [Example 548, 3-[[4-[5-chloro-3-methyl-2-[[(3S)-3-piperidyl]oxy]phenyl]thieno[3,2-d]pyrimidin-6-yl]metthyl]-5-fluoro-1-isopropyl-pyrimidine-2,4-dione]	< 1
Cc1cc(Cl)cc(-c2ccnc3cc(Cn4c(=O)ccn(CC(F)(F)F)c4=O)sc23)c1OC1CC(N2CCOC[C@@H]2C)C1 (stereo partly drawn) [Example 658, 3-[[7-[5-chloro-3-methyl-2-[3-[(3S)-3-methylmorpholin-4-yl]cyclobutoxy]phenyl]thieno[3,2-b]pyridin-2-yl]methyl]-1-(2,2,2-trifluoroethyl)pyrimidine-2,4-dione; 2,2,2-trifluoroacetic acid]	< 1
Cc1cc(Cl)cc(-c2ccnc3cc(Cn4c(=O)ccn(CC(F)(F)F)c4=O)sc23)c1OC1(C)CCNCC1 [Example 618, 3-[[7-[5-chloro-3-methyl-2-[(4-methyl-4-piperidyl)oxy]phenyl]thieno[3,2-b]pyridin-2-yl]methyl]-1-(2,2,2-trifluoroethyl)pyrimidine-2,4-dione]	< 1
Cc1cc(Cl)cc(-c2ccnc3cc(Cn4c(=O)ccn(CC(F)(F)F)c4=O)sc23)c1O[C@@H]1CN[C@@H]1C [Example 591, 3-[[7-[5-chloro-3-methyl-2-[(2R,3R)-2-methylazetidin-3-yl]oxy-phenyl]thieno[3,2-b]pyridin-2-yl]methyl]-1-(2,2,2-trifluoroethyl)pyrimidine-2,4-dione]	< 1
Cc1cc(Cl)cc(-c2ccnc3cc(Cn4c(=O)ccn(CC(F)(F)F)c4=O)sc23)c1O[C@H]1CNC[C@H]1C [Example 626, 3-[[7-[5-chloro-3-methyl-2-[(3R,4R)-4-methylpyrrolidin-3-yl]oxy-phenyl]thieno[3,2-b]pyridin-2-yl]methyl]-1-(2,2,2-trifluoroethyl)pyrimidine-2,4-dione]	< 1
